Data published in patent publication US9044427B2, “Compositions and methods for prevention and treatment of wounds” (ONCONOVA THERAPEUTICS, INC, priority 2010, dated 2015).
“And” between values parts separate entries of the source, which are not always exact repeats. Equal values may be shown once. “Also recorded” adds a separate entry of the source. Marks after values point to notes of the source that are not given here.

System: mouse model of cutaneous injury
Assay: Wound healing in skin, mouse model of cutaneous injury (skin punch)
Type: in vivo
Conditions: for CT50 (Days), wound half-closure time, Mean: linear regression
Description: Test substance ON 01210.Na Solution was evaluated for possible effects on wound healing in a mouse model of cutaneous injury. The test substance was administered subcutaneously (SC) in two dosing regimens: the first was 24 hours and 15 minutes before skin punch, and the second was 4 hours and 15 minutes before skin punch. Percent closure of the wound (%) was determined on days 1, 3, 5, 7, 9, 11, 13, 15, 17, 19, 21 and 22, and the half closure time (CT50) was then obtained. One-way ANOVA followed by Dunnett's test was used to determine significant difference between vehicle control and treated groups at individual time points. Significant differences are considered at P<0.05 level.
ON 01210.Na Solution was provided by Onconova Therapeutics Inc in a preformulated form. Test substance was administered subcutaneously (SC) in two dosing patterns, the first was 24 hours and 15 minutes before skin punch, and the second was 4 hours and 15 minutes before skin punch. The dosing time of vehicle (ON 01210.Na Placebo Solution) was given as the second pattern. The dosing volume was 10 mL/kg.
Animals: Male ICR mice weighing 24±2 g were provided by BioLasco Taiwan (under Charles River Laboratories Technology Licensee). Test animals were housed individually in a cage (29×18×13 cm) after skin injury through experiment. All animals were maintained in a controlled temperature (21-23° C.) and humidity (50%-70%) environment with 12 hours light/dark cycles for at least three days in MDS Pharma Services—Taiwan Laboratory prior to use. Free access to standard lab chow for Mice [MF-18 (Oriental Yeast Co., Ltd., Japan)] and reverse osmosis (RO) water was granted. All aspects of this work including housing, experimentation and disposal of animals were performed in general accordance with the Guide for the Care and Use of Laboratory Animals (National Academy Press, Washington, D.C., 1996).
Groups of 8 ICR male mice weighing 24±2 g were used. During the study, the tested animals were housed in individual cages. Under hexobarbital (90 mg/kg, IP) anesthesia, the shoulder and back region of each animal was shaved. A sharp punch (ID 12 mm) was applied to remove the skin including panniculus carnosus and adherent tissues. Test substance was administered subcutaneously in two dosing patterns, the first was 24 hours and 15 minutes before skin punch, and the second was 4 hours and 15 minutes before skin punch the dosing time of vehicle (ON 01210.Na Placebo Solution) was given as the second dosing pattern. The wound area, traced onto clear plastic sheets, was measured by use of an Image—ProPlus (Media Cybernetics, Version 4.5.0.29) on days 1, 3, 5, 7, 9, 11, 13, 15, 17, 19, 21 and 22. The percent closure of the wound (%) was calculated, and wound half-closure time (CT50) was analyzed by linear regression using Graph-Prism (Graph Software USA). One-way ANOVA followed by Dunnett's test was applied for comparison between the treated and vehicle groups at each measurement time point. Differences are considered statistically significant at P<0.05.
Test substance was administered subcutaneously (SC) in two dosing patterns, the first was 24 hours and 15 minutes before skin punch, and the second was 4 hours and 15 minutes before skin punch; the dosing time of vehicle (ON 01210.Na Placebo Solution) was given as the second pattern. The wound closure (%) and wound half-closure time (CT50) were determined. One-way ANOVA followed by Dunnett's test was applied for comparison between the treated and vehicle groups. *P<0.05, vs. vehicle control.

[1] = 500 mg/kg × 2 SC (−4 hr, −15 min), individual surviving mice N 1-6, sodium salt
[2] = 500 mg/kg × 2 SC (−4 hr, −15 min), individual surviving mice N 1-6
[3] = 500 mg/kg × 2 SC (−4 hr, −15 min before skin punch), mean of surviving animals, sodium salt
[4] = 500 mg/kg × 2 SC (−4 hr, −15 min before skin punch), mean of surviving animals
[5] = 500 mg/kg × 2 SC (−24 hr, −15 min), individual mice N 1-8
[6] = 500 mg/kg × 2 SC (−24 hr, −15 min), individual mice N 1-8, sodium salt
[7] = 500 mg/kg × 2 SC (−24 hr, −15 min before skin punch), group mean
[8] = 500 mg/kg × 2 SC (−24 hr, −15 min before skin punch), group mean, sodium salt

Structure (SMILES): O=C([O-])c1ccc(/C=C/S(=O)(=O)Cc2ccc(Cl)cc2)cc1.[Na+] [ON 01210.Na Solution, (E)-4-carboxystyryl-4-chlorobenzylsulfone sodium salt]
- Effect on wound closure vs vehicle control (500 mg/kg SC, 4 hr and 15 min before skin punch, surviving animals, P<0.05 vs vehicle): significant increase in wound closure on days 13 and 15
- Effect on wound closure / wound healing vs vehicle control (500 mg/kg SC, 24 hours and 15 minutes before skin punch, P<0.05 vs vehicle, sodium salt): promoted significant increase in wound closure on days 3, 5, 7, 13, 15 and 17; also recorded: promoted wound healing with significant reduction in CT50 value
- The Closure of Wound (%), Individual Value, Day 1 (500 mg/kg × 2 SC (−4 hr, −15 min), individual mice N 1-8): 0.0%
- The Closure of Wound (%), Individual Value, Day 3 [1]: 27.9% and 13.0% and 31.4% and 13.4% and 40.5% and 11.7%
- The Closure of Wound (%), Individual Value, Day 5 [1]: 40.2% and 23.3% and 37.2% and 24.9% and 48.5% and 18.4%
- The Closure of Wound (%), Individual Value, Day 7 [1]: 48.0% and 32.9% and 41.9% and 36.2% and 62.4% and 34.6%
- The Closure of Wound (%), Individual Value, Day 9 [1]: 59.0% and 49.2% and 60.3% and 52.9% and 76.3% and 43.0%
- The Closure of Wound (%), Individual Value, Day 11 [1]: 65.3% and 68.7% and 73.5% and 77.1% and 79.6% and 66.1%
- The Closure of Wound (%), Individual Value, Day 13 [1]: 84.2% and 90.4% and 90.3% and 78.8% and 93.1% and 88.0%
- The Closure of Wound (%), Individual Value, Day 15 [1]: 93.4% and 94.6% and 97.2% and 100.0% (2×) and 97.6%
- The Closure of Wound (%), Individual Value, Day 17 [1]: 96.7% and 100.0% (5×)
- The Closure of Wound (%), Individual Value, Day 19 [2]: 100.0%
- The Closure of Wound (%), Individual Value, Day 21 [2]: 100.0%
- The Closure of Wound (%), Individual Value, Day 22 [2]: 100.0%
- CT50 (Days), Individual Value [1]: 8.0 days and 9.2 days and 7.7 days and 8.9 days and 5.8 days and 9.4 days
- Animal died (entry in individual wound-closure tables) (500 mg/kg × 2 SC (−4 hr, −15 min), mice N 7 and 8, Days 3-22, sodium salt): died and Died
- The Closure of Wound (%) Day 1, Mean (500 mg/kg × 2 SC (−4 hr, −15 min before skin punch), group mean): 0.0%
- The Closure of Wound (%) Day 3, Mean [3]: 23.0%
- The Closure of Wound (%) Day 5, Mean [4]: 32.1%
- The Closure of Wound (%) Day 7, Mean [4]: 42.7%
- The Closure of Wound (%) Day 9, Mean [4]: 56.8%
- The Closure of Wound (%) Day 11, Mean [4]: 71.7%
- The Closure of Wound (%) Day 13, Mean [3]: 87.5%
- The Closure of Wound (%) Day 15, Mean [3]: 97.1%
- The Closure of Wound (%) Day 17, Mean [4]: 99.4%
- The Closure of Wound (%) Day 19, Mean [4]: 100.0%
- The Closure of Wound (%) Day 21, Mean [4]: 100.0%
- The Closure of Wound (%) Day 22, Mean [4]: 100.0%
- CT50 (Days), wound half-closure time, Mean [3]: 8.2 ± 0.5 days and 8.2 days
- The Closure of Wound (%), Individual Value, Day 1 [5]: 0.0%
- The Closure of Wound (%), Individual Value, Day 3 [6]: 36.8% and 15.2% and 28.2% and 23.1% and 21.6% and 42.8% and 29.4% and 41.1%
- The Closure of Wound (%), Individual Value, Day 5 [6]: 51.5% and 35.7% and 39.1% and 45.1% and 37.7% and 35.6% and 40.9% and 44.4%
- The Closure of Wound (%), Individual Value, Day 7 [6]: 49.7% and 47.0% and 45.6% and 56.9% and 46.8% and 60.4% and 52.0% and 55.8%
- The Closure of Wound (%), Individual Value, Day 9 [6]: 74.1% and 60.1% and 54.4% and 63.6% and 54.1% and 79.4% and 64.0% and 69.1%
- The Closure of Wound (%), Individual Value, Day 11 [6]: 79.5% and 81.7% and 70.4% and 76.3% and 64.4% and 84.4% and 71.4% and 80.8%
- The Closure of Wound (%), Individual Value, Day 13 [6]: 84.4% and 90.6% and 83.7% and 89.6% and 85.8% and 95.8% and 80.7% and 95.6%
- The Closure of Wound (%), Individual Value, Day 15 [6]: 89.8% and 100.0% (5×) and 97.6% and 88.8%
- The Closure of Wound (%), Individual Value, Day 17 [5]: 100.0%
- The Closure of Wound (%), Individual Value, Day 19 [5]: 100.0%
- The Closure of Wound (%), Individual Value, Day 21 [5]: 100.0%
- The Closure of Wound (%), Individual Value, Day 22 [6]: 100% (2×) and 100.0% (6×)
- CT50 (Days), Individual Value [6]: 6.6 Days and 8.0 Days (2×) and 7.2 Days and 8.3 Days and 6.0 Days and 7.6 Days and 6.2 Days
- The Closure of Wound (%) Day 1, Mean [7]: 0.0%
- The Closure of Wound (%) Day 3, Mean [8]: 29.8%
- The Closure of Wound (%) Day 5, Mean [8]: 41.3%
- The Closure of Wound (%) Day 7, Mean [8]: 51.8%
- The Closure of Wound (%) Day 9, Mean [7]: 64.8%
- The Closure of Wound (%) Day 11, Mean [7]: 76.1%
- The Closure of Wound (%) Day 13, Mean [8]: 88.3%
- The Closure of Wound (%) Day 15, Mean [8]: 97.0%
- The Closure of Wound (%) Day 17, Mean [8]: 100.0%
- The Closure of Wound (%) Day 19, Mean [7]: 100.0%
- The Closure of Wound (%) Day 21, Mean [7]: 100.0%
- The Closure of Wound (%) Day 22, Mean [7]: 100.0%
- CT50 (Days), wound half-closure time, Mean [8]: 7.2 ± 0.3 days and 7.2 days
- Animals died (mortality) (500 mg/kg × 2 SC given 4 hr and 15 min before skin punch (interval 3 hr 45 min), mice, cause of death not known, sodium salt): two out of eight animals died; also recorded: (2/8 died)
- Wound healing, percentage of wound closure (FIG. 1) (pre-treated 24 hour or 4 hour prior to wound vs placebo): significant improvement in wound healing
